Assays:
Format in all cases: functional, cell-based
MGC-803 = assay: Antiproliferative activity against human MGC803 cells after 72 hrs by MTT assay; details: MGC-803, 72 h
PC-3 = assay: Antiproliferative activity against human PC3 cells after 72 hrs by MTT assay; details: PC-3, 72 h
NCI-H1650 = assay: Antiproliferative activity against human NCI-H1650 cells after 72 hrs by MTT assay; details: NCI-H1650, 72 h

SMILES	IC50 (MGC-803) [µM]	IC50 (PC-3) [µM]	IC50 (NCI-H1650) [µM]
CCCSc1nc(NNC(=S)NCc2ccccc2)c2nnn(CCc3cccs3)c2n1	41.1	> 64	> 64
CCCSc1nc(NNC(=S)NCc2ccccc2)c2nnn(CCc3c[nH]c4ccccc34)c2n1	30.3	15.3	> 64
O=c1[nH]cc(F)c(=O)[nH]1 [FLUOROURACIL]	7.86	27.6	14.6

Source: ChEMBL document CHEMBL4145503, “Design, synthesis and in vitro biological evaluation of novel [1,2,3]triazolo[4,5-d]pyrimidine derivatives containing a thiosemicarbazide moiety” (Eur J Med Chem, 2018)
